According to patent publication US9617225B2 (VIROSTATICS SRL, priority 2012, dated 2017):
Like-named read-outs stand apart in the source and are kept apart here.

Experiments:
[1] = target: human CDK9/CyclinT kinase complex (Homo sapiens (Human), UniProt P50750); experiment: In Vitro CDK9/CyclinT Assay (IMAP fluorescent polarization); format: biochemical
Method in brief: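 Phosphorylation of 400 nM TAMRA-Rbtide (15-mer retinoblastoma-derived peptide) by 5 nM CDK9/CyclinT with 12 μM ATP (=Kmapp) in 20 mM MOPS pH 7, 1 mM DTT, 10 mM MgCl2, 0.01% Tween 20. Reaction run 1 hour at room temperature, stopped with IMAP beads; read by fluorescence polarization.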

[2] = system: Primary T cells; experiment: Cytotoxicity, viability by flow cytometry; format: cell-based
Protocol: Primary T cells are cultured and treated with different concentrations of the test compound. Viability is analysed by measuring through flow cytometry based techniques the percentage of viable cells, compared to untreated control=100%).

[3] = system: laboratory strain of HIV-1; experiment: Antiviral Activity Against HIV (AV), p24 in infected activated primary T cells; format: cell-based; conditions: for antiviral and antiproliferative activity and cytotoxicity profile: summary in words; for IC50: read-out: AV50, Table 5
Protocol: Antiviral Activity Against HIV (AV)
Activated primary T cells are infected with a laboratory strain of HIV-1, then cultured and exposed to different concentrations of the test compounds. HIV replication is analysed by measuring the viral protein p24 and expressed as percentage of untreated control. Inhibition of viral replication (AV) is then calculated (AV=100 minus the % p24 compared to control, AV of control=0%). Inhibitory concentration 50% for antiviral activity (AV50) is calculated.

Chain of human CDK9/CyclinT kinase complex (P50750 whole entry): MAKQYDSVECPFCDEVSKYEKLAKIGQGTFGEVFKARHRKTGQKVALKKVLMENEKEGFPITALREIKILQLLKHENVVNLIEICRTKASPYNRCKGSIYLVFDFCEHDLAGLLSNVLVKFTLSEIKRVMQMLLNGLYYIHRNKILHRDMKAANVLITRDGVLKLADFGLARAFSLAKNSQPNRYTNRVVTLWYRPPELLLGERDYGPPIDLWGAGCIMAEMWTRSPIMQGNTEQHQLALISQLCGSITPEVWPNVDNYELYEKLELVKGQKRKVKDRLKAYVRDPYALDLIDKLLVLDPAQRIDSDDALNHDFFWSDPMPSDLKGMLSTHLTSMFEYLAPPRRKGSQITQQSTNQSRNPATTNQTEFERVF
Chain of human CDK9/CyclinT kinase complex (O60563 whole entry partner): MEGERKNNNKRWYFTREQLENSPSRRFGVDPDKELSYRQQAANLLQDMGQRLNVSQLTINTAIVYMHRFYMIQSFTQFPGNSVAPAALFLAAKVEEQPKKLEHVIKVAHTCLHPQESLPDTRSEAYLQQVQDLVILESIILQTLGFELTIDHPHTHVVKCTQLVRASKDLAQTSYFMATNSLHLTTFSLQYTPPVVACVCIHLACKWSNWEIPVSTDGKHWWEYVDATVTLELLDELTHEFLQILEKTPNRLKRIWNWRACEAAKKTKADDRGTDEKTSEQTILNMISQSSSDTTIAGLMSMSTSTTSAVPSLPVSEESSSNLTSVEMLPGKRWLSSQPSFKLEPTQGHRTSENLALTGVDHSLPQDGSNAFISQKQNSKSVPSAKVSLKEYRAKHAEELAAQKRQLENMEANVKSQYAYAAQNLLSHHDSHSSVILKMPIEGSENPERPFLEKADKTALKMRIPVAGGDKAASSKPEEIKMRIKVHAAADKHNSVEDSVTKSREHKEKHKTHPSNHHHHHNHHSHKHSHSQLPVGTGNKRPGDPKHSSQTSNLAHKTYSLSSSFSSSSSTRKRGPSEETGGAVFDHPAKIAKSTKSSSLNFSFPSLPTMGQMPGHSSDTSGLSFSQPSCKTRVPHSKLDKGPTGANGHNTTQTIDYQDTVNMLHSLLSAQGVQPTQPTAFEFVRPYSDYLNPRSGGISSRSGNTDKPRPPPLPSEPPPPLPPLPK

SMILES	IC50 ([1]; Table 1) [µM]	TD50 [2] [µM]	antiviral and antiproliferative activity and cytotoxicity profile [3]	IC50 ([1]; Table 5) [µM]	IC50 [3] [µM]	IC50 [1] [µM]	TD50 ([2]; Table 4, toxic dose 50%, viable cells) [µM]	TD50 ([2]; Table 5) [µM]
CNS(=O)(=O)Nc1cc(Nc2cc(-c3ccccc3OC)ncn2)ccc1OC [Example 10, (2-Methoxy-5-(6-(2-methoxyphenyl)pyrimidin-4-ylamino)phenyl)(methylsulfamoyl)amine]	< 0.1	3	good antiviral and antiproliferative activity and a good cytotoxicity profile	–	–	–	–	–
CCOc1ccc(Nc2cc(-c3ccccc3OC)ncn2)cc1C(N)=O [Example 111, 2-Ethoxy-5-[6-(2-methoxy-phenyl)-pyrimidin-4-ylamino]-benzamide]	< 1	12	good antiviral and antiproliferative activity and a good cytotoxicity profile	–	–	–	–	–
COc1ccccc1-c1cc(Nc2ccc(OC)c([N+](=O)[O-])c2)ncn1 [Example 11, N-(4-Methoxy-3-nitrophenyl)-6-(2-methoxyphenyl)pyrimidin-4-amine]	< 1	>1.5	–	< 1	> 1.5	–	–	–
COc1cc(F)c(Nc2cc(-c3cc(F)ccc3OC)ncn2)cc1C(N)=O [Example 144, 4-Fluoro-5-[6-(5-fluoro-2-methoxy-phenyl)-pyrimidin-4-ylamino]-2-methoxy-benzamide]	–	12	good antiviral and antiproliferative activity and a good cytotoxicity profile	–	–	< 1	–	–
COc1ccc(Nc2cc(-c3ccccc3OC)ncn2)cc1C(N)=O [Example 45, 2-methoxy-5-(6-(2-methoxyphenyl)pyrimidin-4-ylamino)benzamide]	–	15	good antiviral and antiproliferative activity and a good cytotoxicity profile	–	–	< 0.1	–	–
COc1ccc(Nc2cc(-c3ccccc3OC)ncn2)cc1CN [Example 43, N-(3-(Aminomethyl)-4-methoxyphenyl)-6-(2-methoxyphenyl)pyrimidin-4-amine]	–	2	good antiviral and antiproliferative activity and a good cytotoxicity profile	–	> 1	< 1	–	–
COc1ccc(Nc2cc(-c3cc(F)ccc3OC)ncn2)cc1C(N)=O [Example 127, 5-[6-(5-Fluoro-2-methoxy-phenyl)-pyrimidin-4-ylamino]-2-methoxy-benzamide]	–	7	good antiviral and antiproliferative activity and a good cytotoxicity profile	–	–	< 1	–	–
COc1ccccc1-c1cc(Nc2ccc(Cl)c(Cn3cnc4ccccc43)c2)ncn1 [Example 16, N-(3-((1H-benzo[d]imidazol-1-yl)methyl)-4-chlorophenyl)-6-(2-methoxyphenyl)pyrimidin-4-amine]	–	1.5	good antiviral and antiproliferative activity and a good cytotoxicity profile	–	–	< 0.1	–	–
COc1ccc(Nc2cc(-c3ccccc3OC)ncn2)cc1O [Example 32, 2-Methoxy-5-(6-(2-methoxyphenyl)pyrimidin-4-ylamino)phenol]	< 0.1	20	good antiviral and antiproliferative activity and a good cytotoxicity profile	–	–	–	–	–
COc1ccc(Nc2cc(-c3ccc(F)cc3OC)ncn2)cc1N [Example 64]	< 1	5	good antiviral and antiproliferative activity and a good cytotoxicity profile	< 1	–	–	–	–
COc1ccc(Nc2cc(-c3ccccc3OC)ncn2)cc1C(=O)O [Example 49, 2-Methoxy-5-[6-(2-methoxy-phenyl)-pyrimidin-4-ylamino]-benzoic acid]	< 1	>10	–	< 1	> 10	–	–	–
CCOc1ccccc1-c1cc(Nc2cc(F)c(OC)c(C(N)=O)c2)ncn1 [Example 141, 5-[6-(2-Ethoxy-phenyl)-pyrimidin-4-ylamino]-3-fluoro-2-methoxy-benzamide]	< 1	>20	good antiviral and antiproliferative activity and a good cytotoxicity profile	–	–	–	–	–
CCOc1ccccc1-c1cc(Nc2cc(C(N)=O)c(OC)cc2F)ncn1 [Example 145, 5-[6-(2-Ethoxy-phenyl)-pyrimidin-4-ylamino]-4-fluoro-2-methoxy-benzamide]	–	15	good antiviral and antiproliferative activity and a good cytotoxicity profile	–	–	< 1	–	–
COc1ccc(Nc2cc(-c3ccccc3OC)ncn2)cc1N [Example 41, 4-Methoxy-N1-(6-(2-methoxyphenyl)pyrimidin-4-yl)benzene-1,3-diamine]	–	8.5	good antiviral and antiproliferative activity and a good cytotoxicity profile	–	–	< 1	–	–
COc1cc(F)c(Nc2cc(-c3ccccc3OC)ncn2)cc1C(N)=O [Example 143, 4-Fluoro-2-methoxy-5-[6-(2-methoxy-phenyl)-pyrimidin-4-ylamino]-benzamide]	–	15	good antiviral and antiproliferative activity and a good cytotoxicity profile	–	–	< 1	–	–
COc1ccc(Nc2cc(-c3ccc(F)cc3OC)ncn2)cc1O [Example 123, 5-[6-(4-Fluoro-2-methoxy-phenyl)-pyrimidin-4-ylamino]-2-methoxy-phenol]	< 1	7	good antiviral and antiproliferative activity and a good cytotoxicity profile	–	–	–	–	–
COc1ccccc1-c1cc(Nc2ccc(O)c([N+](=O)[O-])c2)ncn1 [Example 12, 4-(6-(2-methoxyphenyl)pyrimidin-4-ylamino)-2-nitrophenol]	< 1	>1.5	–	< 1	> 1.5	–	–	–
CCOc1cc(F)ccc1-c1cc(Nc2ccc(OC)c(N)c2)ncn1 [Example 73, N^1-[6-(2-Ethoxy-4-fluoro-phenyl)-pyrimidin-4-yl]-4-methoxy-benzene-1,3-diamine]	< 1	6	good antiviral and antiproliferative activity and a good cytotoxicity profile	–	–	–	–	–
COc1ccccc1-c1cc(Nc2ccc(N(C)C)c(Cn3cnc4ccccc43)c2)ncn1 [Example 42, 2-((1H-Benzo[d]imidazol-1-yl)methyl)-N4-(6-(2-methoxyphenyl)pyrimidin-4-yl)-N1,N1-dimethylbenzene-1,4-diamine]	–	4	–	–	> 5	< 1	–	–
COc1cc(Nc2cc(-c3ccccc3OC)ncn2)ccc1N [Example 59, 2-Methoxy-N^4-[6-(2-methoxy-phenyl)-pyrimidin-4-yl]-benzene-1,4-diamine]	< 1	>2	–	< 1	> 2	–	–	–
COc1ccc(Nc2cc(-c3ccccc3OC)ncn2)cc1NS(=O)(=O)NC1CCCCC1 [Example 13, (2-Methoxy-5-(6-(2-methoxyphenyl)pyrimidin-4-ylamino)phenyl) (cyclohexylsulfamoyl)amine]	< 1	5	good antiviral and antiproliferative activity and a good cytotoxicity profile	–	–	–	–	–
COc1ccc(Nc2cc(-c3ccccc3OC)ncn2)cc1CN1C(=O)c2ccccc2C1=O [Example 3, 2-(2-Methoxy-5-(6-(2-methoxyphenyl)pyrimidin-4-ylamino)benzyl)isoindoline-1,3-dione]	–	–	–	–	> 1	< 1	>5	>5
COc1ccc(Nc2cc(-c3ccccc3OC)ncn2)cc1OC(=O)C(C)(C)C [Example 26, 2-methoxy-5-(6-(2-methoxyphenyl)pyrimidin-4-ylamino)phenyl pivalate]	–	6	good antiviral and antiproliferative activity and a good cytotoxicity profile	–	–	< 10	–	–
COc1ccc(Nc2cc(-c3ccc(F)cc3OC)ncn2)cc1C(N)=O [Example 128, 5-[6-(4-Fluoro-2-methoxy-phenyl)-pyrimidin-4-ylamino]-2-methoxy-benzamide]	< 1	5	good antiviral and antiproliferative activity and a good cytotoxicity profile	–	–	–	–	–
CCOc1cc(F)ccc1-c1cc(Nc2ccc(OC)c(C(N)=O)c2)ncn1 [Example 130, 5-[6-(2-Ethoxy-4-fluoro-phenyl)-pyrimidin-4-ylamino]-2-methoxy-benzamide]	–	15	good antiviral and antiproliferative activity and a good cytotoxicity profile	–	–	< 0.1	–	–
CCOc1ccc(F)cc1-c1cc(Nc2ccc(OC)c(C(N)=O)c2)ncn1 [Example 131, 5-[6-(2-Ethoxy-5-fluoro-phenyl)-pyrimidin-4-ylamino]-2-methoxy-benzamide]	< 1	2	good antiviral and antiproliferative activity and a good cytotoxicity profile	–	–	–	–	–
CCOc1ccc(Nc2cc(-c3ccc(F)cc3OC)ncn2)cc1C(N)=O [Example 112, 2-Ethoxy-5-[6-(4-fluoro-2-methoxy-phenyl)-pyrimidin-4-ylamino]-benzamide]	–	10	good antiviral and antiproliferative activity and a good cytotoxicity profile	–	–	< 1	–	–
